Format in all cases: ADME, tissue-based
For data set [1], the target named is T1, Sphingosine kinase 1/2 (Homo sapiens, UniProt Q9NRA0+Q9NYA1). Kind of data set: Prodrug conversion in human blood assessed as SPHK1/SPHK2-mediated compound phosphorylation by measuring Km by LC-MS/MS analysis.
For data set [2], the target named is T2, Sphingosine kinase 1/2 (Rattus norvegicus, UniProt Q91V26+A6JB73). Kind of data set: Prodrug conversion in rat blood assessed as SPHK1/SPHK2-mediated compound phosphorylation by measuring Km by LC-MS/MS analysis.
Data set [3] concerns the target T2, Sphingosine kinase 1/2. The data set is described as follows: Prodrug conversion in rat blood assessed as SPHK1/SPHK2-mediated compound phosphorylation by measuring intrinsic clearance by LC-MS/MS analysis.
Data set [4] has as its target T2, Sphingosine kinase 1/2. The data set is described as follows: Prodrug conversion in rat blood assessed as SPHK1/SPHK2-mediated compound phosphorylation by measuring Vmax by LC-MS/MS analysis.
Data set [5] deals with T1, Sphingosine kinase 1/2. Kind of data set: Prodrug conversion in human blood assessed as SPHK1/SPHK2-mediated compound phosphorylation by measuring Vmax by LC-MS/MS analysis.
In data set [6] the target is T1, Sphingosine kinase 1/2. The data set is described as follows: Prodrug conversion in human blood assessed as SPHK1/SPHK2-mediated compound phosphorylation by measuring intrinsic clearance by LC-MS/MS analysis.

With `CCCc1nc(-c2ccc(-c3ccc(CCC(N)(CO)CO)cc3)cc2)co1.Cl`, the Km was 42.62 µM in data set [1] and 85.25 µM in data set [2]. Moreover, the CL in data set [3] stood at 0.437 µL/min; in data set [6], 0.012 µL/min. For the same compound, the maximum rate (Vmax) in data set [4] came to 37.24 pmol/min; in data set [5] it was 0.53 pmol/min.
Take `CCCc1nc(-c2ccc(-c3ccc(CC[C@@](C)(N)CO)cc3)cc2)co1.Cl`: the Km in data set [1] was found to be 86.55 µM; in data set [2], 23.6 µM. Also, the CL in data set [3] worked out at 0.175 µL/min; in data set [6], 0.025 µL/min. Besides, the Vmax was determined as 4.13 pmol/min in data set [4] and 2.15 pmol/min in data set [5].
`CCCc1nc(-c2ccc(-c3ccc(CC[C@@H](N)CO)cc3)cc2)co1.Cl`: the Km in data set [1] stood at 54.12 µM; in data set [2], 48.37 µM. Also, the figures for the CL in data set [3] and in data set [6] were 0.334 µL/min and 0.049 µL/min, respectively. Further, the Vmax in data set [4] is listed as 16.15 pmol/min; in data set [5] it was 2.63 pmol/min.
Take `CCCCCCCCc1ccc(CCC(N)(CO)CO)cc1.Cl` [FINGOLIMOD HYDROCHLORIDE]: the figures for the Michaelis constant (Km) in data set [1] and in data set [2] were 23.7 µM and 64.6 µM, respectively. Also, the CL in data set [3] is 0.95 µL/min; in data set [6], 0.013 µL/min. In addition, the Vmax in data set [4] worked out at 61.3 pmol/min; in data set [5], 0.31 pmol/min.

These data come from ChEMBL document CHEMBL4665867, “Design and synthesis of analogues of the sphingosine-1-phosphate receptor 1 agonist IMMH001 with improved phosphorylation rate in human blood” (Bioorg Med Chem, 2020).
